Experimental findings from BindingDB's records for doi:10.1016/s0960-894x(03)00195-1 (Abbott Laboratories, 2003) are described below.

What is called IC50 is the point on the concentration scale where inhibition reaches its midpoint. Low values mean greater potency in that assay, high ones weaker potency in that assay.

The nature of the assay: Inhibition of transfer of […] to biotin K-ras peptide (KKSKTKCVLL) catalyzed by bovine GGTase-I.
As for `Cn1cncc1[C@H](OCc1nc(Cl)c(C#N)cc1-c1cccc(Cl)c1)c1ccc(C#N)cc1`, the IC50 was determined as 2.8 µM.
As to `Cn1cncc1C(OCc1nc(N2CCN(C(=O)OC(C)(C)C)CC2)c(C#N)cc1-c1cccc(Cl)c1)c1ccc(C#N)cc1` (centres undefined), the IC50 was 0.65 µM.
Then `Cn1cncc1C(OCc1ccc(C#N)nc1-c1cccc(OC(F)(F)F)c1)c1ccc(C#N)cc1` (centres undefined), with 0.51 µM; and `Cn1cncc1C(OCc1ncc(C#N)cc1-c1cccc(Cl)c1)c1ccc(C#N)cc1` (centres undefined), with 4.2 µM.
To `CC(=O)N1CCN(c2nc(COC(c3ccc(C#N)cc3)c3cncn3C)c(-c3cccc(Cl)c3)cc2C#N)CC1` (centres undefined) belongs 2.1 µM.
As for `Cn1cncc1C(OCc1ccc(C#N)nc1-c1cc(F)cc(F)c1)c1ccc(C#N)cc1` (centres undefined), it took 4.8 µM to reach half-maximal inhibition (IC50).
To `Cn1cncc1C(OCc1ccc(C#N)c(-c2ccc3ccccc3c2)n1)c1ccc(C#N)cc1` (centres undefined) belongs 2.6 µM; to `Cn1cncc1C(OCc1ccc(C#N)c(-c2cccc(Cl)c2)n1)c1ccc(C#N)cc1` (centres undefined) [2-(3-Chloro-phenyl)-6-[(4-cyano-phenyl)-(3-methyl-3H-imidazol-4-yl)-methoxymethyl]-nicotinonitrile], 1.1 µM; to `Cn1cncc1C(OCc1ccc(C#N)cc1)c1ccc(C#N)c(-c2cccc3cccnc23)c1` (centres undefined) [4-[(4-Cyano-benzyloxy)-(3-methyl-3H-imidazol-4-yl)-methyl]-2-quinolin-8-yl-benzonitrile], 0.103 µM.
To `COc1cccc(-c2cc(C#N)ccc2COC(c2ccc(C#N)cc2)c2cncn2C)c1` (centres undefined) [4-{[(4-cyanophenyl)(1-methyl-1H-imidazol-5-yl)methoxy]methyl}-3-(3-methoxyphenyl)benzonitrile] belongs 3.9 µM.
Then `Cn1cncc1C(OCc1nc(N2CCC(C(N)=O)CC2)c(C#N)cc1-c1cccc(Cl)c1)c1ccc(C#N)cc1` (centres undefined) [5'-(3-Chloro-phenyl)-3'-cyano-6'-[(4-cyano-phenyl)-(3-methyl-3H-imidazol-4-yl)-methoxymethyl]-3,4,5,6-tetrahydro-2H-[1,2']bipyridinyl-4-carboxylic acid amide], with 2.1 µM; and `Cn1cncc1C(OCc1nc(N2CCC(O)CC2)c(C#N)cc1-c1cccc(Cl)c1)c1ccc(C#N)cc1` (centres undefined) [5'-(3-Chloro-phenyl)-6'-[(4-cyano-phenyl)-(3-methyl-3H-imidazol-4-yl)-methoxymethyl]-4-hydroxy-3,4,5,6-tetrahydro-2H-[1,2']bipyridinyl-3'-carbonitrile], with 0.83 µM; and `CN1CCN(c2nc(COC(c3ccc(C#N)cc3)c3cncn3C)c(-c3cccc(Cl)c3)cc2C#N)CC1` (centres undefined) [5-(3-Chloro-phenyl)-6-[(4-cyano-phenyl)-(3-methyl-3H-imidazol-4-yl)-methoxymethyl]-2-(4-methyl-piperazin-1-yl)-nicotinonitrile], with 2.4 µM.
Consider `Cn1cncc1C(OCc1nc(N2CCOCC2)c(C#N)cc1-c1cccc(Cl)c1)c1ccc(C#N)cc1` (centres undefined) [5-(3-Chloro-phenyl)-6-[(4-cyano-phenyl)-(3-methyl-3H-imidazol-4-yl)-methoxymethyl]-2-morpholin-4-yl-nicotinonitrile], for which half-maximal inhibition (IC50) required 1.8 µM. The IC50 values of the last two compounds are within 1.5-fold of each other.
Then `Cn1cncc1C(OCc1ccc(C#N)cc1-c1cc(Cl)cc(Cl)c1)c1ccc(C#N)nc1` (centres undefined) [5-[(3',5'-Dichloro-5-cyano-biphenyl-2-ylmethoxy)-(3-methyl-3H-imidazol-4-yl)-methyl]-pyridine-2-carbonitrile], with 0.96 µM; and `Cn1cncc1C(OCc1ccc(C#N)cc1-c1ccc(F)c(Cl)c1)c1ccc(C#N)nc1` (centres undefined) [5-[(3'-Chloro-5-cyano-4'-fluoro-biphenyl-2-ylmethoxy)-(3-methyl-3H-imidazol-4-yl)-methyl]-pyridine-2-carbonitrile], with 8.6 µM; and `Cn1cncc1C(OCc1ccc(C#N)cc1-c1cccc(Cl)c1)c1ccc(C#N)nc1` (centres undefined) [5-[(3'-Chloro-5-cyano-biphenyl-2-ylmethoxy)-(3-methyl-3H-imidazol-4-yl)-methyl]-pyridine-2-carbonitrile], with 8.62 µM.
Turning to `Cn1cncc1C(OCc1ccc(C#N)nc1-c1ccc2c(c1)OC(F)(F)O2)c1ccc(C#N)cc1` (centres undefined) [5-[(4-Cyano-phenyl)-(3-methyl-3H-imidazol-4-yl)-methoxymethyl]-6-(2,2-difluoro-benzo[1,3]dioxol-5-yl)-pyridine-2-carbonitrile], the IC50 was found to be 1.1 µM.
Then `Cn1cncc1C(OCc1ccc(C#N)nc1-c1cc(Cl)cc(Cl)c1)c1ccc(C#N)cc1` (centres undefined) [5-[(4-Cyano-phenyl)-(3-methyl-3H-imidazol-4-yl)-methoxymethyl]-6-(3,5-dichloro-phenyl)-pyridine-2-carbonitrile], with 1.4 µM.
To `Cn1cncc1C(OCc1ccc(C#N)nc1-c1ccc(OC(F)(F)F)cc1)c1ccc(C#N)cc1` (centres undefined) [5-[(4-Cyano-phenyl)-(3-methyl-3H-imidazol-4-yl)-methoxymethyl]-6-(4-trifluoromethoxy-phenyl)-pyridine-2-carbonitrile] belongs 1.2 µM; to `Cn1cncc1C(OCc1ccc(C#N)nc1-c1ccc2ccccc2c1)c1ccc(C#N)cc1` (centres undefined) [5-[(4-Cyano-phenyl)-(3-methyl-3H-imidazol-4-yl)-methoxymethyl]-6-naphthalen-2-yl-pyridine-2-carbonitrile], 5.5 µM.
Compound `Cn1cncc1C(OCc1ccc(C#N)cc1-c1cccc(OC(F)(F)F)c1)c1ccc(C#N)nc1` (centres undefined) [5-[(5-Cyano-3'-trifluoromethoxy-biphenyl-2-ylmethoxy)-(3-methyl-3H-imidazol-4-yl)-methyl]-pyridine-2-carbonitrile] showed an IC50 of 0.99 µM.
To `Cn1cncc1C(OCc1ccc(C#N)nc1-c1cccc(Cl)c1)c1ccc(C#N)cc1` (centres undefined) [6-(3-Chloro-phenyl)-5-[(4-cyano-phenyl)-(3-methyl-3H-imidazol-4-yl)-methoxymethyl]-pyridine-2-carbonitrile] belongs 1.7 µM; to `Cn1cncc1C(OCc1ccc(C#N)cn1)c1ccc(C#N)c(-c2cccc3ccccc23)c1` (centres undefined) [A-315493], 0.024 µM.
